Laboratory results taken from patent publication US20060013871A1 (priority 2003, published 2006).

Experiment: Particle size analysis in water suspension, Beckman LS230
Format: physicochemical
Settings: feedstock of Example 5, water suspension, Beckman Coulter LS230
Method: The vessel was charged with 405 g of CO2. The agitator rpm was 1,776. The mixing process was run for 1 hr. The final temperature and pressure were 28° C. and 1,434 psig, respectively.
Particle size analysis was done in water suspension using Beckman LS230, however it is known that in an aqueous medium Poloxamer is likely to dissolve.

- d16 particle size of feedstock: 21.8 micron
- d50 particle size of feedstock: 41.21 microns
- d84 particle size of feedstock: 71.05 microns
SMILES: CC(C)Cc1ccc(C(C)C(=O)O)cc1 (stereo not drawn) [Ibuprofen]
